Experimental findings from ChEMBL document CHEMBL4304782, “Antioxidant, Anti-inflammatory, and Neuroprotective Effects of Novel Vinyl Sulfonate Compounds as Nrf2 Activator” (ACS Med Chem Lett, 2019) are described below.

pEC50: −log10 of the molar value.

The assay concerns the target T1, Nuclear factor erythroid 2-related factor 2 (Homo sapiens, UniProt Q16236).
T1 sequence (Q16236 whole entry): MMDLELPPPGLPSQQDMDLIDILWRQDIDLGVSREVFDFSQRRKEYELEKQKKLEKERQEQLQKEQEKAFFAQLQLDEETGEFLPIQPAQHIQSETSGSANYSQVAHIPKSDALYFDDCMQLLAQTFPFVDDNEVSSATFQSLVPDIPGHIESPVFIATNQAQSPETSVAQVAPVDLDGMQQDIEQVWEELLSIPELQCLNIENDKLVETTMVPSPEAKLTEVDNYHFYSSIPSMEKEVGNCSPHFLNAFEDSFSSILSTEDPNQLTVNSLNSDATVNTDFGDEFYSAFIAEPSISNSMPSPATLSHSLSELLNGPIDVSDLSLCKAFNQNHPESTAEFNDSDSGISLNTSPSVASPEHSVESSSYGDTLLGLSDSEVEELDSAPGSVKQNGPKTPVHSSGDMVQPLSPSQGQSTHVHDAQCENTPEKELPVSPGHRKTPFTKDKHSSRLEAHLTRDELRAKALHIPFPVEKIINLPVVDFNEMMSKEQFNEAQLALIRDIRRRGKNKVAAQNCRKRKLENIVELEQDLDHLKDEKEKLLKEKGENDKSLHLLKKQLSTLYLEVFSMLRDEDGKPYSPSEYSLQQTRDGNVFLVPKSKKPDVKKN
The experiment in a line: Activation of ED-tagged Nrf2 in human U2OS cells co-expressing Keap1 assessed as induction of NRF2 translocation to nucleus after 6 hrs by beta-galactosidase based chemiluminescent assay. The assay is classed as cell-based.
What is called pEC50 is the EC50 on a negative log10 scale, so that one unit is a factor of ten. As for `O=S(=O)(/C=C/c1ccccc1Cl)Nc1ccccc1`, the pEC50 is less than 5.00. Next, `COc1ccccc1OS(=O)(=O)/C=C/c1ccc(Cl)cc1`: 5.87; `COc1cccc(OS(=O)(=O)/C=C/c2cccc(Cl)c2)c1`: 6.03. Then `COc1ccc(OS(=O)(=O)/C=C/c2ccccc2Cl)cc1`, with 6.63; and `COc1ccc(OS(=O)(=O)/C=C/c2ccccc2)cc1`, with 5.83.

`COc1ccccc1OS(=O)(=O)/C=C/c1cccc(Cl)c1`: the pEC50 is 6.16. As to `COc1cccc(NS(=O)(=O)/C=C/c2ccccc2Cl)c1`, the pEC50 is less than 5.00. Next, `COc1cccc(OS(=O)(=O)/C=C/c2ccccc2Cl)c1`: 6.78; `COc1ccc(OS(=O)(=O)/C=C/c2ccc(Cl)cc2)cc1`: 5.94; `COc1cccc(OS(=O)(=O)/C=C/c2ccc(Cl)cc2)c1`: 5.75.

Take `COc1ccc(NS(=O)(=O)/C=C/c2ccccc2Cl)cc1`: the pEC50 is less than 5.00. Next, `COc1ccc(OS(=O)(=O)/C=C/c2cccc(Cl)c2)cc1`: 6.02; `O=S(=O)(/C=C/c1ccccc1)Nc1ccccc1`: less than 5.00. With `O=S(=O)(/C=C/c1ccccc1)Oc1ccccc1`, the pEC50 was 5.98.

Take `COc1ccccc1NS(=O)(=O)/C=C/c1ccccc1Cl`: the pEC50 is 5.20.
